Test results taken from US20140039050A1, “METHOD FOR […] INFECTION IN A FE[…]” (priority 2011, published 2014).

Experiments:
Type in all cases: cell-based
yeast cells = test: Neubauer chamber microscopy with erythrosine dye (Method 2), yeast cell count, viability and budding; conditions: exposure +30° C. 5 hours; for Reproductive yeast cells %: budding cells over total living cells; for CFU/ml Yeasts 48 h, Neubauer count: total yeast cells; for Yeast cell viability %: viable cells over total cells (live+dead)
Protocol: (§1) Total viable bacteria and viable yeasts in the samples herein were measured as colony forming units (CFU) per unit of volume (i.e., CFU/ml). The viability of yeasts and their ability to reproduce were measured by using a microscopical method, where specific dye (erythrosine) was used to visualize the amount and form (live, dead, budding) of yeast cells.
(§2) The yeast cream samples (recovered from the wine, through a centrifuge) were diluted with lake water in a ratio of 30%+70%, respectively. The diluted yeast cream samples (later on called yeast cream solutions) were exposed to varying concentrations of performic acid in the equilibrium solution as follows: 49.5 ppm, 74.3 ppm and 99 ppm. In a control sample, no performic acid was added to the yeast cream solution. The effect of performic acid on bacteria was determined by one method (method 1), and on yeast cells by two methods (methods 1 and 2).
The exposed samples and the control sample were held in +30° C. for 5 hours, after which the specific parameters of yeast cells were measured. These parameters included the amount of living yeast cells, dead yeast cells and budding yeast cells (i.e. reproducing yeast cells). The method used was a standard method, commonly adopted by Brazilian Sugar Cane Industry mills. In the method, a Neubauer chamber was filled with approximately 10 μl of the exposed sample, where the erythrosine dye had been mixed in. On the cover slip, a drop of immersion oil was added, and the above mentioned yeast cell parameters were evaluated by using an immersion objective (100×) of the microscope. The cells that presented pink coloration were counted as dead cells, and uncolored cells as living cells. The budding cells were determined on the basis of the shape of the yeast cell.
The total amount of the yeast cells was counted and compared to the result obtained with Method 1. Results are provided in Table 1 (Neubauer count of yeast cells). The cell viability indicates the percentage of viable cells over total cells (live+dead). The cell reproductive % indicates the percentage of budding cells over total living cells.

yeasts = test: Serial dilution and cultivation on Petri films after exposure of yeast cream solution (Method 1), yeasts; conditions: exposure +30° C. 30 minutes, incubated +30° C. 48 hours
Protocol: as §1, §2
(§3) The exposed samples and the control sample were held in +30° C. for 30 minutes, after which the amount of survived microbes was enumerated. The method used was a Serial dilution and cultivation method, where the effect of performic acid on the yeast cream solution was measured via dilution and cultivation of the sample after the exposure, to enumerate the amount of microbial growth. This method entail the dilution of each is sample by a factor large enough to enable clear separation of individual microbial colonies on Petri™ films (from 3M); thus allowing the colonies to be individually counted. Where diluted samples had been applied and inoculated in, the Petri™ films were incubated at +35° C. for 48 hours (bacteria) or at +30° C. for 48 hours (yeasts).

bacteria = test: Serial dilution and cultivation on Petri films after exposure of yeast cream solution (Method 1), bacteria; conditions: exposure +30° C. 30 minutes, incubated +35° C. 48 hours
Protocol: as §1, §2, §3

[1] = 49.5 ppm performic acid in yeast cream solution
[2] = 74.3 ppm performic acid in yeast cream solution
[3] = 99 ppm performic acid in yeast cream solution

## O=COO [performic acid]
Yeast cells; [1]
  Reproductive yeast cells %: 6.8%
  CFU/ml Yeasts 48 h, Neubauer count: 380 000 000 CFU/ml
  Yeast cell viability %: 71.1%
Yeast cells; [2]
  Reproductive yeast cells %: 8.9%
  CFU/ml Yeasts 48 h, Neubauer count: 400 000 000 CFU/ml
  Yeast cell viability %: 72.1%
Yeast cells; [3]
  Reproductive yeast cells %: 4.1%
  CFU/ml Yeasts 48 h, Neubauer count: 640 000 000 CFU/ml
  Yeast cell viability %: 72.3%
yeasts; [1]
  CFU/ml Yeasts 48 h, MIC: 1 000 000 000 CFU/ml
yeasts; [2]
  CFU/ml Yeasts 48 h, MIC: 6 100 000 000 CFU/ml
yeasts; [3]
  CFU/ml Yeasts 48 h, MIC: 1 000 000 000 CFU/ml
bacteria; [1]
  CFU/ml Bacteria 48 h, MIC: 60 CFU/ml
bacteria; [2]
  CFU/ml Bacteria 48 h, MIC: 70 CFU/ml
bacteria; [3]
  CFU/ml Bacteria 48 h, MIC: 30 CFU/ml
